Measured values: patent publication US7288273B1, “Gallotannins and ellagitannins as regulators of cytokine release” (The Penn State Research Foundation, priority 2000, dated 2007)

Tested on: TNF-α secretion from h-PBMC's
Experiment: TNF-α release from h-PBMC's, ELISA
Assay type: cell-based, human
Conditions: 24 hours, ± SD
Method: Authentic samples of agrimoniin and coriariin A were supplied by Professor Yoshida (Okayama University, Japan). Dimeric gallotannin (analog of coriariin A) and β-D-PGG were synthesized as described. LPS (E. coli 055:B5 phenol extract, MW range 50-100 KD). Ficoll-Histopaque (ρ=1.077 g/mL), Fetal Bovine Serum, sterile, hybridoma tested (FCS), gentamicin 10 mg/mL. L-glutamine, 200 mM. Dextran B-512 Leuconostoc Av M.W. 580000, and Trypan Blue stain were purchased from Sigma. Hanks Buffer Saline Solution 1×, with phenol red, mediatech (HBSS) and RPMI 1640 1×, mediatech were purchased from Fisher Scientific, Human IL-1β and TNF-α Enzyme Linked ImmunoSorbent Assay (ELISA) kits were purchased from R and D Systems, Minneapolis, Minn. Fresh heparinized blood was obtained from health human subjects (ages 20-34).
Dose-Response Data: General Procedure. H-PBMC's were isolated by reported procedures (10. 18). The cells counted and the viability was determined by Trypan Blue exclusion (typically, viability exceeded 95%). The concentration of the cells in the 0.5 mL wells was adjusted to 1×10^6 cells/well by diluting with the required amount of RPMI.
The appropriate amount of a tannin (or LPS) stock solution in HBSS was added to each well to furnish the concentration values reported in the Figures. […] The culture plates were incubated in a 5% CO2, 37° C. humidified incubator for the indicated time. At the end of the time interval, 450 μL of the culture supernatant from each well was harvested, after centrifugation at 400 g, 25° C., 10 min. with brake, and stored at −78° C. pending ELISA analysis for the cytokine(s). The ELISA assays were conducted per the manufacturer's instructions using standard calibration curves to calculate cytokine concentration from observed absorbance readings. The cytokine values reported are averages of three runs±SE.
The dimeric antitumor ellagitannins coriariin A and agrimoniin, the monomeric gallotannin β-D-pentagalloylglucose (β-D-PGG) and the dimeric gallotannin of this invention were all examined in this study. The dimeric gallotannin is an analog of coriariin A and is identical to the parent ellagitannin except that the galloyl rings at O(4) and O(6) are not joined in a hexahydroxydiphenoyl (HHDP) linkage. h-PBMC's were incubated with the compound under investigation for the indicated length of time and the amounts of both IL-1β and, independently, TNF-α, present in the culture supernatants was determined using commercially available ELISA kits. In each case, LPS was used as a positive control while untreated cells were reserved as negative controls.
In the first study, the induction of TNF-α secretion from h-PBMC's in the presence of each compound 17c-21c was measured. The h-PBMC's were incubated with each compound for 24 hours. The TNF-α levels in the cell culture supernatant were assayed by Enzyme Linked ImmunoSorbant Assay (ELISA). The data point for each assay represent the mean of triplicate measurements. […] (See FIG. 11).

Compound | TNF-α secreted in the presence of 17c-21c (compound 0.6 μM) [pg/mL] | TNF-α secreted in the presence of 17c-21c (compound 2.9 μM) [pg/mL] | TNF-α secreted in the presence of 17c-21c (compound 5.9 μM) [pg/mL] | TNF-α secreted in the presence of 17c-21c (compound 11.8 μM) [pg/mL] | TNF-α secreted in the presence of 17c-21c (compound 17.6 μM) [pg/mL] | TNF-α secreted in the presence of 17c-21c (compound 23.5 μM) [pg/mL] | TNF-α secreted in the presence of 17c-21c (compound 29.4 μM) [pg/mL] | TNF-α secreted in the presence of 17c-21c (compound 2.8 μM) [pg/mL] | TNF-α secreted in the presence of 17c-21c (compound 5.6 μM) [pg/mL] | TNF-α secreted in the presence of 17c-21c (compound 11.2 μM) [pg/mL] | TNF-α secreted in the presence of 17c-21c (compound 16.8 μM) [pg/mL] | TNF-α secreted in the presence of 17c-21c (compound 22.3 μM) [pg/mL] | TNF-α secreted in the presence of 17c-21c (compound 27.9 μM) [pg/mL]
O=C(OC[C@H]1O[C@@H](OC(=O)c2cccc(C(=O)O[C@@H]3O[C@H](COC(=O)c4cc(O)c(O)c(O)c4)[C@@H](OC(=O)c4cc(O)c(O)c(O)c4)[C@H](OC(=O)c4cc(O)c(O)c(O)c4)[C@H]3OC(=O)c3cc(O)c(O)c(O)c3)c2)[C@H](OC(=O)c2cc(O)c(O)c(O)c2)[C@@H](OC(=O)c2cc(O)c(O)c(O)c2)[C@@H]1OC(=O)c1cc(O)c(O)c(O)c1)c1cc(O)c(O)c(O)c1 [Compound 18c, 1,1′-O-2,2′,3,3′,4,4′,6,6′-Tetrakis(3,4,5-trihydroxybenzoyl)-β,β′-D-glucopyranosylisophthalate] | 8.9 ± 5.6 | 11.9 ± 5.2 | 6.7 ± 2.9 | 9.5 ± 7.2 | 11.4 ± 9.2 | 3.3 ± 2.6 | 8.5 ± 3.5 | – | – | – | – | – | –
O=C(OC[C@H]1O[C@@H](OC(=O)c2ccc(-c3ccc(C(=O)O[C@@H]4O[C@H](COC(=O)c5cc(O)c(O)c(O)c5)[C@@H](OC(=O)c5cc(O)c(O)c(O)c5)[C@H](OC(=O)c5cc(O)c(O)c(O)c5)[C@H]4OC(=O)c4cc(O)c(O)c(O)c4)cc3)cc2)[C@H](OC(=O)c2cc(O)c(O)c(O)c2)[C@@H](OC(=O)c2cc(O)c(O)c(O)c2)[C@@H]1OC(=O)c1cc(O)c(O)c(O)c1)c1cc(O)c(O)c(O)c1 [Compound 19c, 1,1′-O-2.2′,3,3′,4,4′,6,6′-Tetrakis(3,4,5-trihyroxybenzoyl)-β,β′-D,D′-glucopyranosylbiphenyl-4.4′-diester] | 73.4 ± 58.3 | 50.9 ± 28.0 | 8.0 ± 8.0 | 9.5 ± 6.5 | 24.5 ± 10.7 | 67.6 ± 21.0 | 117.8 ± 44.0 | – | – | – | – | – | –
O=C(CCCCCC(=O)OC1O[C@H](COC(=O)c2cc(O)c(O)c(O)c2)[C@@H](OC(=O)c2cc(O)c(O)c(O)c2)[C@H](OC(=O)c2cc(O)c(O)c(O)c2)[C@H]1OC(=O)c1cc(O)c(O)c(O)c1)OC1O[C@H](COC(=O)c2cc(O)c(O)c(O)c2)[C@@H](OC(=O)c2cc(O)c(O)c(O)c2)[C@H](OC(=O)c2cc(O)c(O)c(O)c2)[C@H]1OC(=O)c1cc(O)c(O)c(O)c1 (mixture of isomers) [Compound 20c, 1,1′-O-2,2′,3,3′,4,4′,6,6′-Tetrakis(3,4,5-trihyroxybenzoyl)-β,β′-D,D′-glucopyranosylpimelate] | 0 | – | – | – | – | – | – | 0 | 0 | 0 | 0 | 0 | 0
